Key:
Assay type in all cases: cell-based, human
A549 cells = assay: ALDEFLUOR analysis, lung cancer cells; conditions: 24 hours
Experimental: (§1) An ALDEFLUOR analysis system provides a novel approach to the identification, evaluation, and isolation of CSCs based on the activity of aldehyde dehydrogenase (ALDH). BODIPY-aminoacetaldehyde as an active reagent was added to breast cancer cells or lung cancer cells, and converted into fluorescent BODIPY-aminoacetate by ALDH. Diethylaminobenzaldehyde (DEAB), which is an ALDH inhibitor, was used as a negative control. MCF-7 cells or A549 cells were treated with 10 μM or 20 μM ciclesonide for 24 hours, and the proportion of ALDH-positive cells was analyzed by ALDEFLUOR assay. ALDH-positive and negative cells were sorted by C6 Accuri flow cytometry (BD Bioscience).

[1] = test system: A549 cell-derived tumorspheres; assay: Tumorsphere formation; conditions: A549 primary tumorspheres
Experimental: Human lung cancer cells, A549, were cultured under the same culture conditions as those for the breast cancer cells of Example 2-1. To establish primary tumorspheres, single cell-suspended A549 cells were inoculated into ultra-low attachment 6-well plates containing 2 ml of Cancer Stem Premium medium (ProMab Biotechnologies Inc, Richmond, Calif., USA) at a density of 5×10^4 cells/well. The cells were incubated in a 5% CO2 incubator at 37° C. for 10 days.
Lung cancer tumorspheres were counted in the same manner as in Example 3-1, and for the analysis of tumorsphere formation, tumorsphere formation efficiency (TFE, %) was determined by the following equation: TFE (%)=number of tumorspheres per well/total number of plated cells per well×100.

STAT3 = assay: Western blotting of mammosphere nuclear proteins; conditions: MCF-7 cells-derived mammospheres
Experimental: Proteins isolated from ciclesonide-treated MCF-7 or MDA-MB-231 mammospheres were separated on 10% SDS-PAGE and transferred to a polyvinylidene difluoride membrane (Millipore, Bedford, Mass., USA). The membrane was blocked in PBS-Tween 20 (0.1%, v/v) containing 5% skimmed milk at room temperature for 30 minutes. The blot was incubated at 4° C. overnight with a blocking solution containing primary antibodies. The primary antibodies used were as follows: Stat3, p65, Lamin B, and phospho-Stat3 (Cell Signaling, Beverly, Mass., USA). β-actin (Santa Cruz Biotechnology) was used as a loading control. After washing with PBS-Tween 20 (0.1%, v/v), the blot was incubated with horseradish peroxidase-conjugated secondary antibodies, and photosensitized with a chemiluminescence detection kit (Santa Cruz Biotechnology).

MCF-7 cells = assay: ALDEFLUOR analysis, breast cancer cells; conditions: 24 hours
Experimental: as §1

CC(C)C(=O)OCC(=O)[C@@]12O[C@H](C3CCCCC3)O[C@@H]1C[C@H]1[C@@H]3CCC4=CC(=O)C=C[C@]4(C)[C@H]3[C@@H](O)C[C@@]12C [ciclesonide]
proportion of ALDH-positive lung cancer cells (A549 cells): reduced | size of the tumorspheres [1]: significantly reduced | reduction of the number of tumorspheres ([1]; 5 μM and 10 μM): 90% | phosphorylation of nuclear STAT3 protein compared to a control (STAT3): reduced | proportion of ALDH-positive breast cancer cells (MCF-7 cells): reduced

Reference: patent US11191746B2, “Composition for inhibiting a growth of cancer stem cells comprising ciclesonide” (JEJU NATIONAL UNIVERSITY INDUSTRY-ACADEMIC COOPERATION …, priority 2016, dated 2021)
